# Measurements: US5436254A, “Carbostyril derivatives” (Otsuka Pharmaceutical Company, Ltd., priority 1989, dated 1995)
# Target: V1 receptor (Rattus norvegicus, UniProt P30560)
# Test: biochemical
# Type: binding
# Conditions: not given
# Sequence of V1 receptor (P30560 whole entry): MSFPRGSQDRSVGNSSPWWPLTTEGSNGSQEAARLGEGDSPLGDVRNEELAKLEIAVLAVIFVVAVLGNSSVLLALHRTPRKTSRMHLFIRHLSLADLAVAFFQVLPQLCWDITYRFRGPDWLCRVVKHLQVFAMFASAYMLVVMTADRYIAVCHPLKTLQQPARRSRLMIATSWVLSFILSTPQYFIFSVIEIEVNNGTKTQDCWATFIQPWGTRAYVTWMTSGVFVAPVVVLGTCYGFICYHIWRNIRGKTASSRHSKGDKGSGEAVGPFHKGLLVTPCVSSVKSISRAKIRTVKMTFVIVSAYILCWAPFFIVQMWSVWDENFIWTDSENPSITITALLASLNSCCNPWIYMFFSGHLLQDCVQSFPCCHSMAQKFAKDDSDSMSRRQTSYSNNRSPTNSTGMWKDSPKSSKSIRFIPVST
row,SMILES,IC50
1,"CC(=O)N1CCN(C(=O)CCCCCOc2ccc(C(=O)N3CCC(N4C(=O)CCc5ccccc54)CC3)cc2)CC1 [Example 271, 1-{1-(4-[5-(4-Acetyl-1-piperazinylcarbonyl)pentyloxy]benzoyl)-4-piperidinyl}-3,4-dihydrocarbostyril]",42 nM
2,"O=C(c1ccc(OCCCCCCN2CCCC2)cc1)N1CCC(N2C(=O)CCc3ccccc32)CC1 [Example 214, 1-{1-[4-(6-(1-Pyrrolidinyl)hexyloxy)benzoyl]-4-piperidinyl}-3,4-dihydrocarbostyril.]",58 nM
3,"O=C(c1ccc(OCCCNS(=O)(=O)c2ccccc2)cc1)N1CCC(N2C(=O)CCc3ccccc32)CC1 [Example 169, 1-{1-[4-(3-Phenylsulfonylaminopropoxy)benzoyl]-4-piperidinyl}-3,4-dihydrocarbostyril]",170 nM
4,"Cn1ccnc1S(=O)(=O)CCCCCOc1ccc(C(=O)N2CCC(N3C(=O)CCc4ccccc43)CC2)cc1 [Example 282, 1-{1-(4-[5-(1-Methyl-2-imidazolylsulfonyl)pentyloxy)benzoyl)-4-piperidinyl}-3,4-dihydrocarbostyril]",75 nM
5,"NC(=O)OCCCCCOc1ccc(C(=O)N2CCC(N3C(=O)CCc4ccccc43)CC2)cc1 [Example 129, 1-{1-[4-(5-Carbamoyloxypentyloxy)benzoyl]-4-piperidinyl}-3,4-dihydrocarbostyril]",180 nM
6,"NC(=O)CCCCCOc1ccc(C(=O)N2CCC(N3C(=O)CCc4ccccc43)CC2)cc1 [Example 12, 1-{1-[4-(5-Carbamoylpentyloxy)benzoyl]-4-piperidinyl}-3,4-dihydrocarbostyril]",230 nM
7,"N=C(N)CCCOc1ccc(C(=O)N2CCC(N3C(=O)CCc4ccccc43)CC2)cc1 [Example 6, 1-{1-[4-(3-Amidinopropoxy)benzoyl]-4-piperidinyl}-3,4-dihydrocarbostyril]",470 nM
8,"O=C(c1ccc(OCC2CO2)cc1)N1CCC(N2C(=O)CCc3ccccc32)CC1 (stereo not shown) [Example 101, 1-[1-(4-Glycidoxybenzoyl)-4-piperidinyl]-3,4-dihydrocarbostyril]",1600 nM
9,"COc1ccc(C(=O)N2CCC(N3C(=O)CCc4ccccc43)CC2)c(N2CCOC2=O)c1 [Example 51, 1-{1-[2-(2-Oxooxazolydine-3-yl)-4-methoxybenzoyl]-4-piperidinyl}-3,4-dihydrocarbostyril]",490 nM
10,"CC(=O)OCCCCOc1ccc(C(=O)N2CCC(N3C(=O)CCc4ccccc43)CC2)cc1 [Example 37, 1-{1-[4-(4-Acetoxybutoxy)benzoyl]-4-piperidinyl}-3,4-dihydrocarbostyril]",360 nM
11,"CC(=O)OCCCOc1ccc(C(=O)N2CCC(N3C(=O)CCc4ccccc43)CC2)cc1 [Example 33, 1-{1-[4-(3-Acetoxypropoxy)benzoyl]-4-piperidinyl}-3,4-dihydrocarbostyril]",450 nM
12,"O=C(c1ccc(OCCCCC(O)CN2CCCCC2)cc1)N1CCC(N2C(=O)CCc3ccccc32)CC1 (stereo not shown) [Example 303, 1-{1-[4-(5-Hydroxy-6-(1-piperidinyl)hexyloxy)benzoyl]-4-piperidinyl}-3,4-dihydrocarbostyril]",38 nM
13,"CN1CCN(CC(O)CCCCOc2ccc(C(=O)N3CCC(N4C(=O)CCc5ccccc54)CC3)cc2)CC1 (stereo not shown) [Example 178, 1-{1-[4-(5-Hydroxy-6-(4-methyl-1-piperazinyl)hexyloxy]benzoyl]-4-piperidinyl}-3,4-dihydrocarbostyril]",45 nM
14,"O=C(NCCCOc1ccc(C(=O)N2CCC(N3C(=O)CCc4ccccc43)CC2)cc1)[C@@H]1CCCN1 [Example 224, 1-{1-[4-(3-(S)-Prolylaminopropoxy)benzoyl]-4-piperidinyl]-3,4-dihydrocarbostyril]",94 nM
15,CC(=O)NCC(=O)NCCCCOc1ccc(C(=O)N2CCC(N3C(=O)CCc4ccccc43)CC2)cc1 [Example 25],240 nM

# Same assay, conditions: [H]3-Arg-vasopressin 2×10^-10 M, rat liver plasma membrane, 37° C., 10 minutes, pH 8.0
row,SMILES,IC50
1,O=C(c1ccc(OCCCCCn2cncn2)cc1)N1CCC(N2C(=O)CCc3ccccc32)CC1 [Example 237],75 nM
